Measured values as given in patent US20100204265A1 (priority 2009, published 2010).

The compounds below were run on ET (Huh-lucubineo-ET) cell line harboring I389luc-ubi-neo/NS3-3′/ET HCV replicon (assay: Replicon assay (HCV replicon, luciferase readout)). Settings: Hepatitis C virus.
Type: cell-based
Protocol: A cell line, ET (Huh-lucubineo-ET) is used for screening of compounds for inhibiting HCV RNA dependent RNA polymerase. The ET cell line is stably transfected with RNA transcripts harboring a I389luc-ubi-neo/NS3-3′/ET; replicon with firefly luciferase-ubiquitin-neomycin phosphotransferase fusion protein and EMCV-IRES driven NS3-5B polyprotein containing the cell culture adaptive mutations (E1202G; T1280I; K1846T) (Krieger at al, 2001 and unpublished). The ET cells are grown in DMEM (Dulbeco's Modified Eagle's Medium), supplemented with 10% fetal calf serum, 2 mM Glutamine, Penicillin (100 IU/mL)/Streptomycin (100 μg/mL), 1× nonessential amino acids, and 250 μg/mL G418 (“Geneticin”). They are all available through Life Technologies (Bethesda, Md.). The cells are plated at 0.5−1.0×10^4 cells/well in the 96 well plates and incubated for 24 hrs before adding test compound. The compounds are added to the cells to achieve a final concentration of 0.1 nM to […] and a final DMSO (dimethylsulfoxide) concentration of 0.5%. Luciferase activity is measured 48-72 hours later by adding a lysis buffer and the substrate (Catalog number Glo-lysis buffer E2661 and Bright-Glo luciferase system E2620 Promega, Madison, Wis.). Cells should not be too confluent during the assay. Percent inhibition of replication data is plotted relative to no compound control. Under the same condition, cytotoxicity of the compounds are determined using cell proliferation reagent, WST-1 (Roche, Germany). The compounds showing antiviral activities, but no significant cytotoxicities are chosen to determine EC50 and TC50. For these determinations, a 10 point, 2-fold serial dilution for each compound was used, which spans a concentration range of 1000 fold. EC50 and similarly TC50 values were calculated by fitting % inhibition at each concentration to the following equation:
% inhibition=100%/[(EC50/[I])^b+1]
where b is Hill's coefficient.
Work on `CC(=O)N1CCCN(C(=O)c2nc3c(C(F)(F)F)cc(-c4ccoc4)cn3c2Cl)CC1` [Compound 325, 1-[4-(3-Chloro-6-furan-3-yl-8-trifluoromethyl-imidazo[1,2-a]pyridine-2-carbonyl)-[1,4]diazepan-1-yl]-ethanone] yielded an EC50 greater than 50 µM.
Compound `O=C(c1nc2c(C(F)(F)F)cc(-c3ccoc3)cn2c1Cl)N1CC=C(c2ncncc2F)CC1` [Compound 208, (3-Chloro-6-furan-3-yl-8-trifluoromethyl-imidazo[1,2-a]pyridin-2-yl)-[4-(5-fluoro-pyrimidin-4-yl)-3,6-dihydro-2H-pyridin-1-yl]-methanone] has an EC50 of 0.312 µM.
Work on `O=C(c1nc2c(C(F)(F)F)cc(C3=CCNCC3)cn2c1Cl)N1CC=C(c2nccs2)C1` [Compound 218, [3-Chloro-6-(1,2,3,6-tetrahydro-pyridin-4-yl)-8-trifluoromethyl-imidazo[1,2-a]pyridin-2-yl]-(3-thiazol-2-yl-2,5-dihydro-pyrrol-1-yl)-methanone] yielded an EC50 of 2 µM.
With `CSCCC(NC(C)=O)C(=O)NCc1cn2cc(-c3ccoc3)cc(C(F)(F)F)c2n1` (centres unmarked) [Compound 287, 2-Acetylamino-N-(6-furan-3-yl-8-trifluoromethyl-imidazo[1,2-a]pyridin-2-ylmethyl)-4-methylsulfanyl-butyramide] the EC50 was greater than 50 µM.
Compound `O=C(NCCc1cn2cc(-c3ccoc3)cc(C(F)(F)F)c2n1)c1cccs1` [Compound 263, Thiophene-2-carboxylic acid [2-(6-furan-3-yl-8-trifluoromethyl-imidazo[1,2-a]pyridin-2-yl)-ethyl]-amide] has an EC50 greater than 50 µM.
`CC(=O)NC1CCN(C(=O)c2nc3c(C(F)(F)F)cc(-c4ccoc4)cn3c2Cl)CC1` [Compound 323, N-[1-(3-Chloro-6-furan-3-yl-8-trifluoromethyl-imidazo[1,2-a]pyridine-2-carbonyl)-piperidin-4-yl]-acetamide] showed an EC50 of 10.7 µM.
Compound `O=C(c1nc2c(C(F)(F)F)cc(-c3cn[nH]c3)cn2c1Cl)N1CC=C(c2cnsc2)C1` [Compound 107, [3-Chloro-6-(1H-pyrazol-4-yl)-8-trifluoromethyl-imidazo [1,2-a]pyridin-2-yl]-(3-isothiazol-4-yl-2,5-dihydro-pyrrol-1-yl)-methanone] has an EC50 of 0.241 µM.
`CC(=O)NC(Cc1c[nH]c2ccccc12)C(=O)NCc1cn2cc(-c3ccoc3)cc(C(F)(F)F)c2n1` (centres unmarked) [Compound 245, 2-Acetylamino-N-(6-furan-3-yl-8-trifluoromethyl-imidazo[1,2-a]pyridin-2-ylmethyl)-3-(1H-indol-3-yl)-propionamide] gave an EC50 greater than 50 µM.
For `CC(=O)NCC(=O)NCc1cn2cc(-c3ccoc3)cc(C(F)(F)F)c2n1` [Compound 240, 2-Acetylamino-N-(6-furan-3-yl-8-trifluoromethyl-imidazo[1,2-a]pyridin-2-ylmethyl)-acetamide], the EC50 was greater than 50 µM.
Compound `O=C(NCCc1cn2cc(-c3ccoc3)cc(C(F)(F)F)c2n1)C1CC1` [Compound 275, Cyclopropanecarboxylic acid [2-(6-furan-3-yl-8-trifluoromethyl-imidazo[1,2-a]pyridin-2-yl)-ethyl]-amide] has an EC50 greater than 50 µM.
For `COC(=O)N1CCCN(C(=O)c2nc3c(C(F)(F)F)cc(-c4ccoc4)cn3c2Cl)CC1` [Compound 331, 4-(3-Chloro-6-furan-3-yl-8-trifluoromethyl-imidazo[1,2-a]pyridine-2-carbonyl)-[1,4]diazepane-1-carboxylic acid methyl ester], the EC50 was 26.8 µM.
In the case of `N#Cc1c(-c2ccoc2)cc(C(F)F)c2nc(C(=O)N3CC=C(c4nccs4)C3)c(Cl)n12` [Compound 169, 3-Chloro-8-difluoromethyl-6-furan-3-yl-2-(3-thiazol-2-yl-2,5-dihydro-pyrrole-1-carbonyl)-imidazo[1,2-a]pyridine-5-carbonitrile], the EC50 is reported as 0.28 µM.
For `COC(=O)C(Cc1ccccc1)NC(=O)c1cn2cc(-c3ccoc3)cc(C(F)(F)F)c2n1` (centres unmarked) [Compound 157, 2-[(6-Furan-3-yl-8-trifluoromethyl-imidazo[1,2-a]pyridine-2-carbonyl)-amino]-3-phenyl-propionic acid methyl ester], the EC50 was greater than 50 µM.
In the case of `CC(=O)N[C@H](C(=O)NCc1cn2cc(-c3ccoc3)cc(C(F)(F)F)c2n1)C(C)C` [Compound 288, 2-Acetylamino-N-(6-furan-3-yl-8-trifluoromethyl-imidazo[1,2-a]pyridin-2-ylmethyl)-3-methyl-butyramide], the EC50 is reported as greater than 50 µM.
For `CS(=O)(=O)NC1CN(C(=O)c2nc3c(C(F)(F)F)cc(-c4ccco4)cn3c2Cl)C1` [Compound 139, N-[1-(3-Chloro-6-furan-2-yl-8-trifluoromethyl-imidazo[1,2-a]pyridine-2-carbonyl)-azetidin-3-yl]-methanesulfonamide], the EC50 was 0.112 µM.
Compound `O=C(O)CCNC(=O)c1cn2cc(-c3ccoc3)cc(C(F)(F)F)c2n1` [Compound 285, 3-[(6-Furan-3-yl-8-trifluoromethyl-imidazo[1,2-a]pyridine-2-carbonyl)-amino]-propionic acid] has an EC50 greater than 50 µM.
Work on `COC(=O)C(NC(=O)c1cn2cc(-c3ccoc3)cc(C(F)(F)F)c2n1)C(C)O` (centres unmarked) [Compound 253, 2-[(6-Furan-3-yl-8-trifluoromethyl-imidazo[1,2-a]pyridine-2-carbonyl)-amino]-3-hydroxy-butyric acid methyl ester] yielded an EC50 greater than 50 µM.
In the case of `O=C(NCCc1cn2cc(-c3ccoc3)cc(C(F)(F)F)c2n1)c1ccccc1` [Compound 138, N-[2-(6-Furan-3-yl-8-trifluoromethyl-imidazo[1,2-a]pyridin-2-yl)-ethyl]-benzamide], the EC50 is reported as 35.3 µM.
In the case of `O=C(c1nc2c(C(F)(F)F)cc(-c3cn[nH]c3)cn2c1Cl)N1CC=C(c2ccoc2)C1` [Compound 131, [3-Chloro-6-(1H-pyrazol-4-yl)-8-trifluoromethyl-imidazo[1,2-a]pyridin-2-yl]-(3-furan-3-yl-2,5-dihydro-pyrrol-1-yl)-methanone], the EC50 is reported as 0.268 µM.
Compound `O=C(c1nc2c(C(F)(F)F)cc(-c3ccoc3)cn2c1Cl)N1CC=C(c2ncc[nH]2)CC1` [Compound 111, (3-Chloro-6-furan-3-yl-8-trifluoromethyl-imidazo[1,2-a]pyridin-2-yl)-[4-(1H-imidazol-2-yl)-3,6-dihydro-2H-pyridin-1-yl]-methanone] has an EC50 greater than 50 µM.
Work on `COC(=O)C1CCCN1C(=O)c1cn2cc(-c3ccoc3)cc(C(F)(F)F)c2n1` (centres unmarked) [Compound 254, 1-(6-Furan-3-yl-8-trifluoromethyl-imidazo[1,2-a]pyridine-2-carbonyl)-pyrrolidine-2-carboxylic acid methyl ester] yielded an EC50 greater than 50 µM.
For `CNC(=O)CNC(=O)c1cn2cc(-c3ccoc3)cc(C(F)(F)F)c2n1` [Compound 248, 6-Furan-3-yl-8-trifluoromethyl-imidazo[1,2-a]pyridine-2-carboxylic acid methylcarbamoylmethyl-amide], the EC50 was greater than 50 µM.
For `O=C(NCCc1cn2cc(-c3ccoc3)cc(C(F)(F)F)c2n1)Nc1ccccc1` [Compound 283, 1-[2-(6-Furan-3-yl-8-trifluoromethyl-imidazo[1,2-a]pyridin-2-yl)-ethyl]-3-phenyl-urea], the EC50 was greater than 50 µM.
`O=C(Cc1ccccc1F)NCc1cn2cc(-c3ccoc3)cc(C(F)(F)F)c2n1` [Compound 129, 2-(2-Fluoro-phenyl)-N-(6-furan-3-yl-8-trifluoromethyl-imidazo[1,2-a]pyridin-2-ylmethyl)-acetamide] gave an EC50 of 20.3 µM.
`COC(=O)C(Cc1cnc[nH]1)NC(=O)Cc1cn2cc(-c3ccoc3)cc(C(F)(F)F)c2n1` (centres unmarked) [Compound 293, 2-[2-(6-Furan-3-yl-8-trifluoromethyl-imidazo[1,2-a]pyridin-2-yl)-acetylamino]-3-(3H-imidazol-4-yl)-propionic acid methyl ester] was tested, and the EC50 was greater than 50 µM.
Compound `O=C(c1nc2c(C(F)(F)F)cc(-c3ccoc3)cn2c1Cl)N1CC=C(c2cccc(F)n2)CC1` [Compound 204, (3-Chloro-6-furan-3-yl-8-trifluoromethyl-imidazo[1,2-a]pyridin-2-yl)-(6-fluoro-3′,6′-dihydro-2′H-[2,4′]bipyridinyl-1′-yl)-methanone] has an EC50 of 3.71 µM.
Work on `NC(=O)COC1CCN(C(=O)c2nc3c(C(F)(F)F)cc(-c4cn[nH]c4)cn3c2Cl)CC1` [Compound 182, 2-{1-[3-Chloro-6-(1H-pyrazol-4-yl)-8-trifluoromethyl-imidazo[1,2-a]pyridine-2-carbonyl]-piperidin-4-yloxy}-acetamide] yielded an EC50 of 54.6 µM.
Work on `O=C(c1nc2c(C(F)(F)F)cc(-c3cn[nH]c3)cn2c1Cl)N1CCC(Nc2ccccc2)C1` (centres unmarked) [Compound 179, [3-Chloro-6-(1H-pyrazol-4-yl)-8-trifluoromethyl-imidazo[1,2-a]pyridin-2-yl]-(3-phenylamino-pyrrolidin-1-yl)-methanone] yielded an EC50 of 10.2 µM.
`NC(=O)[C@H](CO)NC(=O)Cc1cn2cc(-c3ccoc3)cc(C(F)(F)F)c2n1` (stereo in doubt) [Compound 298, 2-[2-(6-Furan-3-yl-8-trifluoromethyl-imidazo[1,2-a]pyridin-2-yl)-acetylamino]-3-hydroxy-propionamide] gave an EC50 greater than 50 µM.
